Data: paper PMC3445516 (PLoS ONE, 2012)
Like-named read-outs stand apart in the source and are kept apart here.

Legend:
Assay in all cases: Ambit kinase profiling, competition binding
[1] = target: T1, ROCK2 (Homo sapiens, UniProt O75116)
T1 construct: purchased Ambit Biosciences (KINOMEscan)
Experimental: (§1) Also included in the kinase profile are four isoforms of PKC (δ, ε, η, θ) and eight isoforms of CAMKs (CAMKIα, δ, γ; CAMKIIα, β, δ, γ; CAMK4).
(§2) The global kinase profiling experiment was performed by Ambit Biosciences.

[2] = target: T2, CAMKIIγ (Homo sapiens, UniProt Q13555); conditions: for competition: CAMKIIγ, 10 µM
T2 construct: purchased Ambit Biosciences (KINOMEscan)
Experimental: as §1, §2

[3] = target: T3, EGFR (Homo sapiens, UniProt P00533); conditions: for % Competition: 10 µM
T3 construct: purchased Ambit Biosciences (KINOMEscan)
Experimental: as §1, §2

[4] = target: T4, PCTK2 (Homo sapiens, UniProt Q00537)
T4 construct: purchased Ambit Biosciences (KINOMEscan)
T4 sequence (Q00537 whole entry): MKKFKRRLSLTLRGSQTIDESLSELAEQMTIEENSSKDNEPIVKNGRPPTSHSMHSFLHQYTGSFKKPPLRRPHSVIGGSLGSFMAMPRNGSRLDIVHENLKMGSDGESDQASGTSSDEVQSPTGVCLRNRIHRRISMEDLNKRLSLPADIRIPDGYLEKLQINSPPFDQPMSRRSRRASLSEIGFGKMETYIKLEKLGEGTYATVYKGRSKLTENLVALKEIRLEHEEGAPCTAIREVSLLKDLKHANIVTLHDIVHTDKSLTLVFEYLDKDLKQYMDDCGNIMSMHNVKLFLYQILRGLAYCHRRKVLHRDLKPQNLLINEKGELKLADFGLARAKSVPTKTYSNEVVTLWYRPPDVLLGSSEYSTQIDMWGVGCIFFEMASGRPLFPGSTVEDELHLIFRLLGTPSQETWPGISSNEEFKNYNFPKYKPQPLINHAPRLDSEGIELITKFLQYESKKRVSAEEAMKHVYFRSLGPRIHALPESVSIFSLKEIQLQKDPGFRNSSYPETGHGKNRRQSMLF
Experimental: as §1, §2

[5] = target: T5, CSNK1E (Homo sapiens, UniProt P49674)
T5 construct: purchased Ambit Biosciences (KINOMEscan)
T5 sequence (P49674 whole entry): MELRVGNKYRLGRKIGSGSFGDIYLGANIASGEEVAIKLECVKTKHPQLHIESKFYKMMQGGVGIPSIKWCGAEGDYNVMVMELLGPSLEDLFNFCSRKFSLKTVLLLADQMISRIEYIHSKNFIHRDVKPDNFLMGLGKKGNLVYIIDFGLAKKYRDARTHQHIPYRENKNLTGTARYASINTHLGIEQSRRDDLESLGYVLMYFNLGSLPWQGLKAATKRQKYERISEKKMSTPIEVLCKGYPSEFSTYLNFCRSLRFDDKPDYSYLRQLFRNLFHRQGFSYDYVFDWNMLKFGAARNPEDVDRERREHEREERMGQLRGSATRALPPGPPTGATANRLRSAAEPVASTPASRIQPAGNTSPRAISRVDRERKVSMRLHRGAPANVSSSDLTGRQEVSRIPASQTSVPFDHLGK
Experimental: as §1, §2

[6] = target: T6, CAMKIIδ (Homo sapiens, UniProt Q13557); conditions: for competition: CAMKIIδ, 10 µM
T6 construct: purchased Ambit Biosciences (KINOMEscan)
T6 sequence (Q13557 whole entry): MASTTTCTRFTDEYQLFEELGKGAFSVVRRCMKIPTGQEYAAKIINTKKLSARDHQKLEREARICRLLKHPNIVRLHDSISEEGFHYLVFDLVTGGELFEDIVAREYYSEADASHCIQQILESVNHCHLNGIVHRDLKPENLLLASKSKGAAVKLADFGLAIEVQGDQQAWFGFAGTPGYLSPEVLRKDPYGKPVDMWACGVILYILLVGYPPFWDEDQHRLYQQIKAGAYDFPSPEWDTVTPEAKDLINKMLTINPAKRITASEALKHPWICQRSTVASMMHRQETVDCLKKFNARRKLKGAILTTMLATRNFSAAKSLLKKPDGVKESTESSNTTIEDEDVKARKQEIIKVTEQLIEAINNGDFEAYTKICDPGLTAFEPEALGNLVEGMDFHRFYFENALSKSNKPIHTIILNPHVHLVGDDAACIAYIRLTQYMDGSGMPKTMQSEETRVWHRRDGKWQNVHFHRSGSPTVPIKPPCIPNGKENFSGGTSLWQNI
Experimental: as §1, §2

[7] = target: T7, LATS1 (Homo sapiens, UniProt O95835)
T7 construct: purchased Ambit Biosciences (KINOMEscan)
T7 sequence (O95835 1-1130): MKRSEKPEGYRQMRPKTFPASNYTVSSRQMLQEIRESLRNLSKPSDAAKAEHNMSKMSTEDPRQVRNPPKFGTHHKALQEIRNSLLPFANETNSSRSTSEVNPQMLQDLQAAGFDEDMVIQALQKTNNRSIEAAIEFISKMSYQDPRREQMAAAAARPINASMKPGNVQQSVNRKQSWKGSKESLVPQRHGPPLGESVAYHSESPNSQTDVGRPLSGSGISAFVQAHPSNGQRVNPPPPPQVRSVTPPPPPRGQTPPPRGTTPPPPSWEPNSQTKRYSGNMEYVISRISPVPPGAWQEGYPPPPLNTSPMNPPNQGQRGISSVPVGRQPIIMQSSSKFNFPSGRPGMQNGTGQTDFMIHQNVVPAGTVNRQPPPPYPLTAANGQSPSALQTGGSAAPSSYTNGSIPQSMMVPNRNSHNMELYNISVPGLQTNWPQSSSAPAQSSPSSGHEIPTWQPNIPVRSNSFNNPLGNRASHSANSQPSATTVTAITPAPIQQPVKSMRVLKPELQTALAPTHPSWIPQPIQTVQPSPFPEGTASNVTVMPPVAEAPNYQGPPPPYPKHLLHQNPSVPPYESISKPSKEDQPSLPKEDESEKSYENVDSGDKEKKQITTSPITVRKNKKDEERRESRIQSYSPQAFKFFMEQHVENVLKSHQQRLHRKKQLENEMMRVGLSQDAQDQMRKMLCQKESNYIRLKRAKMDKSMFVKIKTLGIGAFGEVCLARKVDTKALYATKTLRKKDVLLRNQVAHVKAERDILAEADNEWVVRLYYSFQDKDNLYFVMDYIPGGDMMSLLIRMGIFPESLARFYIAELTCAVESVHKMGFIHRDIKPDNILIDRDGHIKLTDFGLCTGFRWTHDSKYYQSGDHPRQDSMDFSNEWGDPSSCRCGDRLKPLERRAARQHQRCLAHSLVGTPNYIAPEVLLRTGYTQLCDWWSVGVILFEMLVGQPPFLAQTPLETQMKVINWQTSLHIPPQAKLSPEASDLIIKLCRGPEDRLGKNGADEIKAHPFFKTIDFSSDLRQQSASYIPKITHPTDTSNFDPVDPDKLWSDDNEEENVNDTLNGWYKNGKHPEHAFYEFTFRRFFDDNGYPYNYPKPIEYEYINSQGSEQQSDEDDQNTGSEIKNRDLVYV
Experimental: as §1, §2

[8] = target: T8, EGFR(L858R) (Homo sapiens, UniProt P00533, L858R); conditions: for % Competition: 10 µM
T8 construct: purchased Ambit Biosciences (KINOMEscan)
Experimental: as §1, §2

[9] = target: T9, MST4 (Homo sapiens, UniProt Q9P289)
T9 construct: purchased Ambit Biosciences (KINOMEscan)
T9 sequence (Q9P289 whole entry): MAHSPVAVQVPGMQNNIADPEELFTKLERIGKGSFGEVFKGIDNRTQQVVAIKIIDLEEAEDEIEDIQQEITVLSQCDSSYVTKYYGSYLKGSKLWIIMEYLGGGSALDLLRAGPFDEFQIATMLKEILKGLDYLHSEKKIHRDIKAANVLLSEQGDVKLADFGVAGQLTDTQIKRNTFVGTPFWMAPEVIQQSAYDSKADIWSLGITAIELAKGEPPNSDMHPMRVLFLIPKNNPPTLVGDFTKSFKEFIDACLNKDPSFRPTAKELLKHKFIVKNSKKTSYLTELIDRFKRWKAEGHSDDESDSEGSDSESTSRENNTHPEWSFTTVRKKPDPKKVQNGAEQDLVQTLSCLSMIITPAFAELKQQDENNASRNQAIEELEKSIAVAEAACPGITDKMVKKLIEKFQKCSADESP
Experimental: as §1, §2

[10] = target: T10, ADCK4 (Homo sapiens, UniProt Q96D53)
T10 construct: purchased Ambit Biosciences (KINOMEscan)
T10 sequence (Q96D53 1-544): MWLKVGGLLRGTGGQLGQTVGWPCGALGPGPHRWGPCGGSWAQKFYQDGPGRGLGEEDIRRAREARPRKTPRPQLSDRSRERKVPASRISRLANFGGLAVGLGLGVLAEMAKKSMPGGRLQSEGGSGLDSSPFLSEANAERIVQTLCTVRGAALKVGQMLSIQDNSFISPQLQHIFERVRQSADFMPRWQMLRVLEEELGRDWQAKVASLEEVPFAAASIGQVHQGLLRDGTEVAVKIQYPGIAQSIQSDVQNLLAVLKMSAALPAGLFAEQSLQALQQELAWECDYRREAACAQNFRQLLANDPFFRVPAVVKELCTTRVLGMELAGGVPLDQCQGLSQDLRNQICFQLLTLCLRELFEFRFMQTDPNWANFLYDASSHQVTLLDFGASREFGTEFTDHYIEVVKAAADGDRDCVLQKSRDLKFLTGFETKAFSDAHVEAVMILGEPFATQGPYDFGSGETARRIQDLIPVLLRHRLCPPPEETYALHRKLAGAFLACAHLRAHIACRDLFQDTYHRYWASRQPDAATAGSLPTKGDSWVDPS
Experimental: as §1, §2

[11] = target: T11, p38-gamma (Homo sapiens, UniProt P53778)
T11 construct: purchased Ambit Biosciences (KINOMEscan)
T11 sequence (P53778 1-367): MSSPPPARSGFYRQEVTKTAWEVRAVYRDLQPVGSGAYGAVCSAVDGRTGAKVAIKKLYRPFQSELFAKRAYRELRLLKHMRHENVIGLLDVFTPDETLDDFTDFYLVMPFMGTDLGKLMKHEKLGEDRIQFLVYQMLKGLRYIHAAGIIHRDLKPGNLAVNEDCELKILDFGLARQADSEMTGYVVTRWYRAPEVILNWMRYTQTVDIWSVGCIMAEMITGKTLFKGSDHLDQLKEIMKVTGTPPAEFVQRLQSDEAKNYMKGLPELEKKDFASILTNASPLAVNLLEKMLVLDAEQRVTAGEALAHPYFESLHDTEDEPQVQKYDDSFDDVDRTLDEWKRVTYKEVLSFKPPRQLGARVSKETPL
Experimental: as §1, §2

[12] = target: T12, DAPK1 (Homo sapiens, UniProt P53355)
T12 construct: purchased Ambit Biosciences (KINOMEscan)
T12 sequence (P53355 whole entry): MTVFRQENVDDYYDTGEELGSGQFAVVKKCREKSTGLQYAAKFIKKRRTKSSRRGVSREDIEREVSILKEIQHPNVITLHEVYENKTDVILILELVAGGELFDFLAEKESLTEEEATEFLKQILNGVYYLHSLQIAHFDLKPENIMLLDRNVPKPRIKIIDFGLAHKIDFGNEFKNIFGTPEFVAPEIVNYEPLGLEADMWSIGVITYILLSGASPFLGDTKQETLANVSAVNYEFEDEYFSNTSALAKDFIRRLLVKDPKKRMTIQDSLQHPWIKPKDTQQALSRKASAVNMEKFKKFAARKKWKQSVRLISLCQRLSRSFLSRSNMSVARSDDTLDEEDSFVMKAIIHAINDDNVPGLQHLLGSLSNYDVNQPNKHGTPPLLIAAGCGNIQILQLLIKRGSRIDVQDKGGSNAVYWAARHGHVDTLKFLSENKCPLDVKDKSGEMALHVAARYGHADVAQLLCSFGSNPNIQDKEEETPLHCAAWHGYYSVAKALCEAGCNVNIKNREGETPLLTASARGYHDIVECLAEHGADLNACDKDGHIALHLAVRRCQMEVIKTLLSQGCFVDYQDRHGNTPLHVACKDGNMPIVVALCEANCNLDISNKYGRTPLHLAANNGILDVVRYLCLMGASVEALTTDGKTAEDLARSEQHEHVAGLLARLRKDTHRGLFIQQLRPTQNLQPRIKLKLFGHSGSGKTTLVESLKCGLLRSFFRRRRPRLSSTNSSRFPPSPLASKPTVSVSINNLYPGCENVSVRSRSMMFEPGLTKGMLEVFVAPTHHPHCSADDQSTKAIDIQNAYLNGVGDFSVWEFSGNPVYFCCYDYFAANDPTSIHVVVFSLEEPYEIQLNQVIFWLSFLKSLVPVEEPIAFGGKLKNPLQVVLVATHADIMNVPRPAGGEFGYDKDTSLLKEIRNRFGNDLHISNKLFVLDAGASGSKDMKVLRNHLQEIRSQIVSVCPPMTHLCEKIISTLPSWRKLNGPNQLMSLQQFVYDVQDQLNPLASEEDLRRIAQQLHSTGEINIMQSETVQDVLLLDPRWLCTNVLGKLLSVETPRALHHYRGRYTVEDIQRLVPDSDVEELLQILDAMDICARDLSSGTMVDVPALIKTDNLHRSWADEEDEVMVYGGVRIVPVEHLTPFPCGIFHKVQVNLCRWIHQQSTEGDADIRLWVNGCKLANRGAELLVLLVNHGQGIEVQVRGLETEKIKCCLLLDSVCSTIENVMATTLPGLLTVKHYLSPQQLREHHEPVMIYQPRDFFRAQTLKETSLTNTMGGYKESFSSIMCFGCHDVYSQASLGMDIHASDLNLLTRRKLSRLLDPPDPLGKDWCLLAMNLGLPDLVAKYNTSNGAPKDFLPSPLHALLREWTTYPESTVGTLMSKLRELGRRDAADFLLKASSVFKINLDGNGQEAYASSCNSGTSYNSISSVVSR
Experimental: as §1, §2

[13] = target: T13, EGFR(E746-A750del) (Homo sapiens, UniProt P00533, DEL746-750); conditions: for % Competition: 10 µM
T13 construct: purchased Ambit Biosciences (KINOMEscan)
Experimental: as §1, §2

T1 sequence (O75116 whole entry): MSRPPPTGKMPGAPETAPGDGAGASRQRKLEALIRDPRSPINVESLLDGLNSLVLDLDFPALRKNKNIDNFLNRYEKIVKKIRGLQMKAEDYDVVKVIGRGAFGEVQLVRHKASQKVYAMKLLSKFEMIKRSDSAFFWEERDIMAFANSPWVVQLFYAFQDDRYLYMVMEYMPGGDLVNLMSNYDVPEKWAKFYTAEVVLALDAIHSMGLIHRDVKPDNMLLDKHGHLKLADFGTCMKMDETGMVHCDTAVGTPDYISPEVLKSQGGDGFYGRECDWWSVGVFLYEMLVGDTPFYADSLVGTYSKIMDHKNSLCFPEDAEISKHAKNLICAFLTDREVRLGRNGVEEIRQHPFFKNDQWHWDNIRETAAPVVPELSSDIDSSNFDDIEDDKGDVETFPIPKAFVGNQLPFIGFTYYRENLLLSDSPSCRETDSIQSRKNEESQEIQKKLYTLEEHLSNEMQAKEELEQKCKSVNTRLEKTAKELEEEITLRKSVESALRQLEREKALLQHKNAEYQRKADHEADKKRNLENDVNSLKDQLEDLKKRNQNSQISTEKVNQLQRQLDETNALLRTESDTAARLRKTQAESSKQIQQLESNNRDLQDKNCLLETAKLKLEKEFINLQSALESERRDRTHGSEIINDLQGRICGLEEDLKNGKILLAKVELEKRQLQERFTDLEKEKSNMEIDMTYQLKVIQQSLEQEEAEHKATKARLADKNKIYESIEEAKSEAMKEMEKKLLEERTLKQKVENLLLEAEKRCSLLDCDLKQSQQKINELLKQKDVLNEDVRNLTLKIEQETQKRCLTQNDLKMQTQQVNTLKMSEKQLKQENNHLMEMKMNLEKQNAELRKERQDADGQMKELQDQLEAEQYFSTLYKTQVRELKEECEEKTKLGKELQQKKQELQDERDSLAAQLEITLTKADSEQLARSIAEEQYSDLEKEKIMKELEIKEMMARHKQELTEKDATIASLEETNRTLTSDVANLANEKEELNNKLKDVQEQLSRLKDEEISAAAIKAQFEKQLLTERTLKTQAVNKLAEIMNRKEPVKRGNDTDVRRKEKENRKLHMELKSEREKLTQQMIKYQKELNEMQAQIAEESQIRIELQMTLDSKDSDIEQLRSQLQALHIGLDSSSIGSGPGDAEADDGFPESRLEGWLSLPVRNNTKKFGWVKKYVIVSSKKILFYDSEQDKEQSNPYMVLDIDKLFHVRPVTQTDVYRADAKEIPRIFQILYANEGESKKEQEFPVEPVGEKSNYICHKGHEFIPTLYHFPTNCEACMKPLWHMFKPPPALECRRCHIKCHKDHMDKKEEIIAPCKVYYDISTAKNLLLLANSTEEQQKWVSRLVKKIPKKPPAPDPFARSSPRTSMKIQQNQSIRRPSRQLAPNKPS

Fc1ccc(-c2c(-c3ccncc3)[nH]c3nccnc23)cc1 [Compound 122]
inhibition at 10 µM ([1]; ROCK2, 10 µM, read-out: % Competition): 89% | competition [2]: < 50% | % Competition [3]: 95% | inhibition at 10 µM ([4]; PCTK2, 10 µM, read-out: % Competition): 78% | inhibition at 10 µM ([5]; CSNK1E, 10 µM, read-out: % Competition): 100% | competition [6]: < 50% | inhibition at 10 µM ([7]; LATS1, 10 µM, read-out: % Competition): 68% | % Competition [8]: 98% | inhibition at 10 µM ([9]; MST4, 10 µM, read-out: % Competition): 97% | inhibition at 10 µM ([10]; ADCK4, 10 µM, read-out: % Competition): 94% | inhibition at 10 µM ([11]; 10 µM, read-out: % Competition): 90% | inhibition at 10 µM ([12]; DAPK1, 10 µM, read-out: % Competition): < 50% | % Competition [13]: 96%

CC(O)CNc1cc(-c2[nH]c3cccnc3c2-c2ccc(F)cc2)ccn1 (stereo not drawn) [Compound 140]
inhibition at 10 µM ([1]; read-out: % Competition): < 50% | competition [2]: < 50% | % Competition [3]: 76% | inhibition at 10 µM ([4]; read-out: % Competition): < 50% | inhibition at 10 µM ([5]; read-out: % Competition, CSNK1E, 10 µM): 99 to 100% | competition [6]: < 50% | inhibition at 10 µM ([7]; read-out: % Competition): < 50% | % Competition [8]: 84% | inhibition at 10 µM ([9]; read-out: % Competition): < 50% | inhibition at 10 µM ([10]; read-out: % Competition): 98% | % Competition ([11]; 10 µM): <50% | inhibition at 10 µM ([12]; read-out: % Competition): 73% | % Competition [13]: 90%

Fc1ccc(-c2c(-c3ccncc3)[nH]c3nccnc23)cc1 [RO1155697-000-005]
inhibition at 10 µM ([1]; ROCK2, compound concentration 10 uM, read-out: Percent Competition): 89% | inhibition at 10 µM ([2]; CAMK2G, compound concentration 10 uM, read-out: Percent Competition): < 50% | Percent Competition ([3]; compound concentration 10 uM): 95% | inhibition at 10 µM ([4]; PCTK2, compound concentration 10 uM, read-out: Percent Competition): 78% | inhibition at 10 µM ([5]; CSNK1E, compound concentration 10 uM, read-out: Percent Competition): 100% | inhibition at 10 µM ([6]; CAMK2D, compound concentration 10 uM, read-out: Percent Competition): < 50% | inhibition at 10 µM ([7]; LATS1, compound concentration 10 uM, read-out: Percent Competition): 68% | Percent Competition ([8]; compound concentration 10 uM): 98% | inhibition at 10 µM ([9]; MST4, compound concentration 10 uM, read-out: Percent Competition): 97% | inhibition at 10 µM ([10]; ADCK4, compound concentration 10 uM, read-out: Percent Competition): 94% | inhibition at 10 µM ([11]; compound concentration 10 uM, read-out: Percent Competition): 90% | inhibition at 10 µM ([12]; DAPK1, compound concentration 10 uM, read-out: Percent Competition): < 50% | Percent Competition ([13]; compound concentration 10 uM): 96%
